The subject of data set [1] is MCF-7 (hormone receptor/HR-positive breast cancer cells). In words: MTT cell viability assay in MCF-7 cells. Type of data set: cell-based. Particulars: Homo sapiens, MCF7, read-out: Cell viability (%) ± SD; for viability at 1 µM: MCF-7, 1 µM; for viability at 10 µM: MCF-7, 10 µM; for viability at 25 µM: MCF-7, 25 µM. The procedure: MDA-MB-231 represents a specific subtype known as triple-negative breast cancer (TNBC). The investigation study was extended with active six hit compounds (9a, 9d, 9h, 10d, 10f, and 11g) in two other different cancer cell lines (MCF-7 and MDA-MB-453), each representing a separate class of breast cancers (MCF-7: hormone receptor/HR-positive; MDA-MB-453: human epidermal growth factor 2 receptor/HER2 positive).
We also included normal mammary epithelial MCF-10A cells in our experiments to confirm if the growth-inhibitory activities of the selected compounds are truly cancer cell-specific. The activity data from MCF-7 and MDA-MB-453 cell lines (tested at 1 µM, 10 µM and 25 µM) and activity data from MCF-10A cell line (tested at 25 µM, 50 µM and 100 µM) are summarized in Table 3.
To evaluate cell viability, the MTT assay was conducted following standard procedures. After 72 h of cell incubation with or without each compound, cell viability was assessed using MTT (3-(4,5-dimethylthiazol-2-yl)-2,5-diphenyltetrazolium bromide), which is a colorimetric method for determining the number of viable cells in various assays including proliferation, cytotoxicity, or chemosensitivity. The MTT reagent was added to the cells after removal of the medium and incubated for 3 h at 37 °C in the CO2 incubator. The formazan product, which is […] in the tissue culture medium, was dissolved in DMSO, and the absorbance of the formazan product was directly measured at 595 nm using a multimode plate reader without additional processing. The absorbance values are directly proportional to the number of viable cells in culture. The percentage of viable cells in each group was determined relative to the untreated control cells.
(Tetrazolium assays rely on reduction of a dye to a coloured formazan, in cell work by metabolically active cells.)

Data set [2] has as its system MDA-MB-453 (HER2 positive breast cancer cells). In words: MTT cell viability assay in MDA-MB-453 cells. In kind it is cell-based, human. Conditions: for viability at 1 µM / viability at 10 µM / viability at 25 µM: Homo sapiens, read-out: Cell viability (%) ± SD; for viability at 1 µM: MDA-MB-453, 1 µM; for viability at 10 µM: MDA-MB-453, 10 µM; for viability at 25 µM: MDA-MB-453, 25 µM; for IC50 value against MDA-MB-453 cells (in words): tested at 1 µM, 10 µM and 25 µM. The procedure: MDA-MB-231 represents a specific subtype known as triple-negative breast cancer (TNBC). The investigation study was extended with active six hit compounds (9a, 9d, 9h, 10d, 10f, and 11g) in two other different cancer cell lines (MCF-7 and MDA-MB-453), each representing a separate class of breast cancers (MCF-7: hormone receptor/HR-positive; MDA-MB-453: human epidermal growth factor 2 receptor/HER2 positive). […] We also included normal mammary epithelial MCF-10A cells in our experiments to confirm if the growth-inhibitory activities of the selected compounds are truly cancer cell-specific. The activity data from MCF-7 and MDA-MB-453 cell lines (tested at 1 µM, 10 µM and 25 µM) and activity data from MCF-10A cell line (tested at 25 µM, 50 µM and 100 µM) are summarized in Table 3. To evaluate cell viability, the MTT assay was conducted following standard procedures. After 72 h of cell incubation with or without each compound, cell viability was assessed using MTT (3-(4,5-dimethylthiazol-2-yl)-2,5-diphenyltetrazolium bromide), which is a colorimetric method for determining the number of viable cells in various assays including proliferation, cytotoxicity, or chemosensitivity. The MTT reagent was added to the cells after removal of the medium and incubated for 3 h at 37 °C in the CO2 incubator. The formazan product, which is […] in the tissue culture medium, was dissolved in DMSO, and the absorbance of the formazan product was directly measured at 595 nm using a multimode plate reader without additional processing. The absorbance values are directly proportional to the number of viable cells in culture. The percentage of viable cells in each group was determined relative to the untreated control cells.

Data set [3] can be described thus: MTT cell viability assay in normal MCF-10A cells. Particulars: human, MCF-10A normal mammary epithelial cells, MCF-10A normal cells, read-out: Cell viability (%) ± SD. Type of data set: cell-based. The procedure: (§1) We also included normal mammary epithelial MCF-10A cells in our experiments to confirm if the growth-inhibitory activities of the selected compounds are truly cancer cell-specific. The activity data from MCF-7 and MDA-MB-453 cell lines (tested at 1 µM, 10 µM and 25 µM) and activity data from MCF-10A cell line (tested at 25 µM, 50 µM and 100 µM) are summarized in Table 3. To evaluate cell viability, the MTT assay was conducted following standard procedures. After 72 h of cell incubation with or without each compound, cell viability was assessed using MTT (3-(4,5-dimethylthiazol-2-yl)-2,5-diphenyltetrazolium bromide), which is a colorimetric method for determining the number of viable cells in various assays including proliferation, cytotoxicity, or chemosensitivity. The MTT reagent was added to the cells after removal of the medium and incubated for 3 h at 37 °C in the CO2 incubator. The formazan product, which is […] in the tissue culture medium, was dissolved in DMSO, and the absorbance of the formazan product was directly measured at 595 nm using a multimode plate reader without additional processing. The absorbance values are directly proportional to the number of viable cells in culture. The percentage of viable cells in each group was determined relative to the untreated control cells.

In data set [4] the test system is normal mammary epithelial MCF-10A cells. The experiment in a line: MTT cell viability assay in normal MCF-10A cells. Type of data set: cell-based. Conditions: tested at 25 µM, 50 µM and 100 µM. The procedure:
as §1

The subject of data set [5] is MCF-7 (hormone receptor/HR-positive breast cancer cells). In words: MTT cell viability assay in MCF-7 cells. Type of data set: cell-based. Conditions: Homo sapiens, MCF7, 72 h, concentrations 10 µM, 25 µM and 50 μM in Fig. 10, read-out: IC50 against MCF-7 breast cancer cells line.

As usually defined, the viability is a read-out of living cells in per cent, often relative to untreated cells. The term IC50 denotes the midpoint of a concentration-inhibition curve.

For `CC(=O)OC[C@H]1O[C@H](n2cc(COc3cc(-c4ccc(C(C)C)cc4)nc4ccnn34)nn2)[C@@H](OC(C)=O)[C@@H](OC(C)=O)[C@@H]1OC(C)=O` [Compound 11g, (2R,3R,4S,5S,6S)-2-(acetoxymethyl)-6-(4-(((5-(4-isopropylphenyl)pyrazolo[1,5-a]pyrimidin-7-yl)oxy)methyl)-1H-1,2,3-triazol-1-yl)tetrahydro-2H-pyran-3,4,5-triyl triacetate], in data set [1], the viability at 1 µM was 70.8 ± 4.2%, the viability at 10 µM is 68.2 ± 3.8% and the viability at 25 µM was found to be 49.1 ± 3.5%. For the same compound, in data set [2], the viability at 1 µM was found to be 95.4 ± 4.8%, the viability at 10 µM came out at 76.4 ± 5.4%, the viability at 25 µM stood at 96.1 ± 35.7% and the “IC50 value against MDA-MB-453 cells (in words)” value (from here on “IC50 value”) was “did not reach up to IC50 value”. Besides, in data set [3], the viability at 72 h, 25 µM was 89.8 ± 2.8%; the viability at 72 h, 50 µM was 84.2 ± 5.8%; the viability at 72 h, 100 µM worked out at 88 ± 1.5%. The “growth inhibitory activity against normal breast epithelial cell (MCF-10A) (in words)” value (“growth inhibitory activity” for short) in data set [4] is on record as “none of these compounds did have any growth inhibitory activity”. Besides, in data set [5], the IC50 was determined as 18.3 µM.

For `CC(=O)OC[C@H]1O[C@@H](n2cc(COc3cc(-c4ccc(C)cc4)nc4ccnn34)nn2)[C@H](OC(C)=O)[C@@H](OC(C)=O)[C@@H]1OC(C)=O` [Compound 9a, (2R,3R,4S,5R,6R)-2-(acetoxymethyl)-6-(4-(((5-(p-tolyl)pyrazolo[1,5-a]pyrimidin-7-yl)oxy)methyl)-1H-1,2,3-triazol-1-yl)tetrahydro-2H-pyran-3,4,5-triyl triacetate], in data set [1], the viability at 1 µM was 68.7 ± 1.18%, the viability at 10 µM came out at 41.3 ± 3.6% and the viability at 25 µM came out at 21.7 ± 4%. For the same compound, in data set [2], the viability at 1 µM was 80.6 ± 8%, the viability at 10 µM was 86.4 ± 5.4%, the viability at 25 µM was found to be 78.1 ± 5.7% and the “IC50 value” value is listed as “did not reach up to IC50 value”. Moreover, in data set [3], the viability at 72 h, 25 µM came to 88.6 ± 1.5%; the viability at 72 h, 50 µM is 84.3 ± 2.9%; the viability at 72 h, 100 µM was determined as 84.2 ± 3%. Also, the “growth inhibitory activity” value in data set [4] was “none of these compounds did have any growth inhibitory activity”. The IC50 in data set [5] is 35.4 µM.

As for `CC(=O)OC[C@H]1O[C@@H](n2cc(COc3cc(-c4ccc(Cl)cc4)nc4ccnn34)nn2)[C@H](OC(C)=O)[C@@H](OC(C)=O)[C@H]1OC(C)=O` [Compound 10d, (2R,3S,4S,5R,6R)-2-(acetoxymethyl)-6-(4-(((5-(4-chlorophenyl)pyrazolo[1,5-a]pyrimidin-7-yl)oxy)methyl)-1H-1,2,3-triazol-1-yl)tetrahydro-2H-pyran-3,4,5-triyl triacetate], in data set [1], the viability at 1 µM is 66 ± 4.7%, the viability at 10 µM turned out to be 34 ± 2.5% and the viability at 25 µM was 20 ± 2.9%. In data set [2], the viability at 1 µM worked out at 88.8 ± 5.2%, the viability at 10 µM turned out to be 78.3 ± 4.7%, the viability at 25 µM worked out at 69.6 ± 5.3% and the “IC50 value” value is given as “did not reach up to IC50 value”. Besides, in data set [3], the viability at 72 h, 25 µM was 89.6 ± 2.2%; the viability at 72 h, 50 µM stood at 85.6 ± 1.7%; the viability at 72 h, 100 µM was found to be 84.4 ± 2.6%. Moreover, in data set [4], the “growth inhibitory activity” value is “none of these compounds did have any growth inhibitory activity”. The IC50 in data set [5] was determined as 40.1 µM.

In the case of `CC(=O)OC[C@H]1O[C@@H](n2cc(COc3cc(-c4ccc5ccccc5c4)nc4ccnn34)nn2)[C@H](OC(C)=O)[C@@H](OC(C)=O)[C@@H]1OC(C)=O` [Compound 9h, (2R,3R,4S,5R,6R)-2-(acetoxymethyl)-6-(4-(((5-(naphthalen-2-yl)pyrazolo[1,5-a]pyrimidin-7-yl)oxy)methyl)-1H-1,2,3-triazol-1-yl)tetrahydro-2H-pyran-3,4,5-triyl triacetate], in data set [1], the viability at 1 µM came out at 79.2 ± 2.6%, the viability at 10 µM stood at 58.7 ± 2.4% and the viability at 25 µM is 42.3 ± 7.6%. Also, in data set [2], the viability at 1 µM worked out at 105 ± 8.1%, the viability at 10 µM is 74.8 ± 1.5%, the viability at 25 µM amounted to 66.4 ± 3.2% and the “IC50 value” value is given as “did not reach up to IC50 value”. Moreover, in data set [3], the viability at 72 h, 25 µM turned out to be 86.8 ± 5.3%; the viability at 72 h, 50 µM is 88.8 ± 3%; the viability at 72 h, 100 µM worked out at 68.5 ± 3.4%. Moreover, the “growth inhibitory activity” value in data set [4] is on record as “none of these compounds did have any growth inhibitory activity”. Moreover, the IC50 in data set [5] stood at 21.1 µM.

In the case of `CC(=O)OC[C@H]1O[C@@H](n2cc(COc3cc(-c4ccc(Cl)cc4)nc4ccnn34)nn2)[C@H](OC(C)=O)[C@@H](OC(C)=O)[C@@H]1OC(C)=O` [Compound 9d, (2R,3R,4S,5R,6R)-2-(acetoxymethyl)-6-(4-(((5-(4-chlorophenyl)pyrazolo[1,5-a]pyrimidin-7-yl)oxy)methyl)-1H-1,2,3-triazol-1-yl)tetrahydro-2H-pyran-3,4,5-triyl triacetate], in data set [1], the viability at 1 µM amounted to 100 ± 4.5%, the viability at 10 µM amounted to 69.8 ± 1.8% and the viability at 25 µM amounted to 62.8 ± 3%. In data set [2], the viability at 1 µM came out at 80.8 ± 3.2%, the viability at 10 µM stood at 82.2 ± 11.5%, the viability at 25 µM is 65.3 ± 5.8% and the “IC50 value” value is “did not reach up to IC50 value”. Moreover, in data set [3], the viability at 72 h, 25 µM is 87.8 ± 2.8%; the viability at 72 h, 50 µM was 85.6 ± 0.7%; the viability at 72 h, 100 µM was 82 ± 1.5%. Besides, in data set [4], the “growth inhibitory activity” value is “none of these compounds did have any growth inhibitory activity”. In addition, the IC50 in data set [5] turned out to be 15.3 µM.
